Among the data in paper PMC6204372, “An RORγt Oral Inhibitor Modulates IL-17 Responses in Peripheral Blood and Intestinal Mucosa of Crohn's Disease Patients” (Frontiers in Immunology, 2018) are Kd values, retold here.

This experiment concerns the target T1, RORγ (RORγt) ligand-binding domain (Homo sapiens, UniProt P51449).
T1 construct: gene RORC
T1 sequence (P51449 265-507 limits assumed): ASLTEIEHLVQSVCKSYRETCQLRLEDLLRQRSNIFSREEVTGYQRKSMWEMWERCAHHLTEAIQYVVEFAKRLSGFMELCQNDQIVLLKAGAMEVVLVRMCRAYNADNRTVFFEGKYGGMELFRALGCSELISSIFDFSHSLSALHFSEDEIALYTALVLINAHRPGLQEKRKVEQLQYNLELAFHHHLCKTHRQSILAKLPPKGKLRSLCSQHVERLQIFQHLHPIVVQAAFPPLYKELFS
In words: Kd for human RORγ LBD (binding method not stated); also RORγ LBD reporter assay IC50 […]. (In general: Reporter assays use an easily measured gene product as a stand-in for the process of interest.)

In general, Kd refers to the free concentration of one partner at which half of the binding sites on the other are occupied at equilibrium, for simple one-to-one binding. Read a high Kd as lower affinity. In turn, BI119 registered a Kd of 65 nM.
